Patent publication US20180193361A1, “GUT ANTI-INFLAMMATORY AGENTS FOR REGULATION OF HIGH BLOOD GLUCOSE LEVELS” (UNIVERSITY HEALTH NETWORK, priority 2015, published 2018)

Tests used:
[1] = tablet; the remaining has local effects in the colon; cited from earlier work
gut epithelial barrier = details: models of IBD (Di Paolo et al., 1996; Liu et al., 2009); cited from earlier work
MODE-K intestinal cells = assay: ZO-1 expression in MODE-K cells treated with IFNγ; format: cell-based, murine; details: recombinant mouse IFNγ 5 or 10 ng/mL, 24 hours
Protocol: To measure the effect of IFNγ on tight-junction gene expression, we treated MODE-K cells with recombinant mouse IFNγ (Biolegend). We purified bulk dendritic cells and T cells from murine small bowels and spleens using a negative selection DC or T cell isolation kit (Stem Cell Technologies). We plated T cells at 5×10^5 cells/well with plate-bound anti-CD3/CD28 (1 μg/ml, Biolegend). […] We collected supernatants for cytokine measurements after 72 hour incubation. […] After 24 hours, we washed the cells with PBS and co-cultured them (1×10^4 cells/well) with OVA323-339 peptide and OT-II splenic or small bowel T cells (5×10^4 cells/well) for 48 hours. Supernatants were collected at 48 hours for cytokine measurement.
The murine intestinal epithelial cell line derived from C3H/He mice. […]
We extracted total RNA from isolated or cultured cells using a RNeasy Mini Kit (Qiagen), and for subcutaneous adipose tissue (SAT) and VAT we used a RNeasy Lipid Extraction kit (Qiagen). […] We assessed expression of adipocyte P2 (aP2), CCAAT/enhancer-binding protein-α (CEBPα), Peroxisome proliferator-activated receptor-γ (PPARγ), and sterol regulatory element-binding protein (SREBP) cDNA. […] We calculated relative fold changes in gene expression normalized to 18s or GAPDH by the ΔΔCT method using the equation 2-ΔΔCT. […]

O=C(O)c1cc(/N=N/c2ccc(S(=O)(=O)Nc3ccccn3)cc2)ccc1O [Sulfasalazine]
absorbed in small bowel [1]: approximately 20%

O=C(O)CCNC(=O)c1ccc(/N=N/c2ccc(O)c(C(=O)O)c2)cc1 [Balsalazide]
intactness of the gut epithelial barrier (gut epithelial barrier): beneficial effects

B1: IFNγ: recombinant mouse IFNγ (Biolegend) (protein, UniProt P01580 23-155, looked up)
Interferon gamma: HGTVIESLESLNNYFNSSGIDVEEKSLFLDIWRNWQKDGDMKILQSQIISFYLRLFEVLKDNQAISNNISVIESHLITTFFSNSKAKKDAFMSIAKFEVNNPQVQRQAFNELIRVVHQLLPESSLRKRKRSRC
ZO-1 tight junction gene expression (MODE-K intestinal cells): reduce
